Experimental data: ChEMBL document CHEMBL1201862, “PubChem BioAssay data set” (2004)
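Assay format: 96-well plates, 48-hour exposure. At the GI50, growth is halved.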 Activity calls are given as the source filed them. No stated cut-off is given here; in the data, active = GI50 up to about 1.1 µM and inactive = higher.

Columns and labels:
Assay in all cases: NCI anticancer screen, dose series, 48 h
[1] = system: HOP-92
[2] = system: SK-MEL-5
[3] = system: HOP-62
[4] = system: TK-10
[5] = system: UO-31
[6] = system: SR
[7] = system: Malme-3M
[8] = system: A498
[9] = system: SF-295
[10] = system: M14
[11] = system: OVCAR-5
[12] = system: HL-60
[13] = system: COLO 205
[14] = system: UACC-62
[15] = system: Hs-578T
[16] = system: PC-3
[17] = system: DU-145
[18] = system: NCI-H226
[19] = system: MDA-MB-231

Measured: GI50

O=C1NC2(CCCC2)C(=O)C12CCCC2
inactive: [1] > 100 µM | [2] > 100 µM | [3] > 100 µM | [4] > 100 µM | [5] > 100 µM | [6] > 100 µM | [7] > 100 µM | [8] > 100 µM | [9] > 100 µM | [10] > 100 µM | [11] > 100 µM | [12] > 100 µM | [13] > 100 µM | [14] > 100 µM

O=c1cc(-c2ccccc2)oc2ccc(-c3ccc4oc(-c5ccccc5)cc(=O)c4c3)cc12
inactive: [1] 14.4 µM | [2] 12.9 µM | [3] 19.1 µM | [4] 29.4 µM | [5] 8.95 µM | [7] 20.3 µM | [8] 14.7 µM | [9] 20.8 µM | [15] 12.2 µM | [10] 16.6 µM | [11] 27.6 µM | [12] 10.1 µM | [13] 17.1 µM | [14] 14.9 µM | [16] > 10 µM

COc1cc(/C=C/C(=O)OC[C@H](Br)[C@H](OC(C)=O)c2ccc3c(c2)OCO3)cc(OC)c1OC
inactive: [1] > 100 µM | [2] > 100 µM | [3] > 100 µM | [4] > 100 µM | [5] 26 µM | [6] 48.8 µM | [7] > 100 µM | [17] > 100 µM | [8] > 100 µM | [18] > 100 µM | [9] > 100 µM | [19] > 100 µM | [10] > 100 µM | [11] > 100 µM | [13] > 100 µM | [14] > 100 µM | [16] 86.3 µM

O=C1C=Cc2c(I)sc(I)c21
inactive: [1] 17 µM | [2] 74.5 µM | [3] 38.6 µM | [4] 30.2 µM | [5] 15.8 µM | [6] 4 µM | [7] 14.5 µM | [17] 30 µM | [8] 48.5 µM | [18] 31.3 µM | [9] 46.8 µM | [19] 29.9 µM | [10] 27 µM | [11] 25.1 µM | [13] 19 µM | [14] 28.8 µM

CCOC(=O)CC1C(C(=O)OCC)=Cn2c([nH]c3cccc4cccc2c43)=C1C(=O)OCC (stereo not drawn)
inactive: [1] > 100 µM | [2] 33.7 µM | [3] > 100 µM | [4] > 100 µM | [5] > 100 µM | [6] > 100 µM | [17] > 100 µM | [8] > 100 µM | [18] > 100 µM | [9] > 100 µM | [10] > 100 µM | [11] > 100 µM | [12] 25.3 µM | [13] > 100 µM | [14] > 100 µM | [16] 91 µM

O=c1sc2c(s1)SSSSS2
inactive: [1] > 50 µM | [2] > 50 µM | [3] > 50 µM | [4] > 50 µM | [5] > 50 µM | [6] > 50 µM | [7] > 50 µM | [17] > 50 µM | [8] > 50 µM | [18] > 50 µM | [9] > 50 µM | [19] > 50 µM | [10] > 50 µM | [11] > 50 µM | [13] > 50 µM | [14] 35.2 µM | [16] > 50 µM

Cc1oc(N)c(S(=O)(=O)/C(C#N)=C/c2ccccc2[N+](=O)[O-])c1C
inactive: [1] 34.7 µM | [2] 19.2 µM | [3] 31.1 µM | [4] 50.2 µM | [5] 16.4 µM | [6] 14 µM | [7] 33.8 µM | [17] 62.4 µM | [8] 85.5 µM | [18] 58.3 µM | [9] 33.9 µM | [19] 32.9 µM | [10] 18.5 µM | [11] 20.6 µM | [13] 21.7 µM | [14] 20.7 µM | [16] 23.1 µM

COc1cc(C2c3cc4c(cc3[C@@H](Nc3ccccc3)C3CO[C@@H](OC)[C@H]23)OCO4)cc(OC)c1O (stereo partly drawn)
inactive: [2] 8.55 µM | [3] 7.11 µM | [4] 9.46 µM | [5] 3.01 µM | [6] 1.95 µM | [9] 3.46 µM | [15] 3.21 µM | [10] 10.4 µM | [11] 6.07 µM | [12] 2.87 µM | [13] 12.3 µM | [16] 8.81 µM

[N-]=[N+]=NC(c1cn(C2CC(O)C(CO)O2)c(=O)[nH]c1=O)C(Cl)I (stereo not drawn)
inactive: [2] > 100 µM | [3] > 100 µM | [4] > 100 µM | [5] > 100 µM | [17] > 100 µM | [8] > 100 µM | [18] > 100 µM | [9] > 100 µM | [19] > 100 µM | [15] > 100 µM | [10] > 100 µM | [11] > 100 µM | [13] > 100 µM | [14] > 100 µM
